The text below walks through data of article PMC6332235, “Phosphonylated Acyclic Guanosine Analogues with the 1,2,3-Triazole Linker” (Molecules, 2015).

Like-named read-outs stand apart in the source and are kept apart here.

For data set [1], the system named is murine leukemia L1210 cells. Put plainly: Cytostatic activity: inhibition of proliferation of murine leukemia L1210 cells. The format is cell-based. Here is the method: (§1) The cytotoxicity of the tested compounds toward the uninfected host cells was defined as the minimum cytotoxic concentration (MCC) that causes a microscopically-detectable alteration of normal cell morphology. The 50% cytotoxic concentration (CC50), causing a 50% decrease in cell viability, was determined using a colorimetric 3-(4,5-dimethylthiazol-2-yl)-5-(3-carboxymethoxyphenyl)-2-(4-sulfophenyl)-2H-tetrazolium (MTS) assay system. The cytostatic activity of the tested compounds was defined as the 50% cytostatic inhibitory concentration (IC50), causing a 50% decrease in cell proliferation, and was determined against murine leukemia L1210, human T-lymphocyte CEM and human cervix carcinoma HeLa cells (Table 1).
(§2) All assays were performed in 96-well microtiter plates. To each well were added (5−7.5) × 10^4 tumor cells and a given amount of the test compound. The cells were allowed to proliferate for 48 h (murine leukemia L1210 cells) or 72 h (human lymphocytic CEM and human cervix carcinoma HeLa cells) at 37 °C in a humidified CO2-controlled atmosphere. At the end of the incubation period, the cells were counted in a Coulter counter. The IC50 (50% inhibitory concentration) was defined as the concentration of the compound that inhibited cell proliferation by 50%.

Data set [2] relates to human cervix carcinoma HeLa cells. Kind of data set: Cytostatic activity: inhibition of proliferation of human cervix carcinoma HeLa cells. It counts as cell-based. The settings on record: read-out: IC50 (HeLa). Here is the method:
as §1, §2

Data set [3] concerns human T-lymphocyte CEM cells. Kind of data set: Cytostatic activity: inhibition of proliferation of human T-lymphocyte CEM cells. It counts as cell-based. The settings on record: read-out: IC50 (CEM). Here is the method:
as §1, §2

Where [4] appears, read: Mus musculus, L1210, 48 h, read-out: IC50 (L1210).
Setting [5] is: human cervix carcinoma HeLa cells, 72 h proliferation, Coulter counter.
Setting [6] is: Mus musculus, L1210, 48 h, murine leukemia L1210 cells, 48 h proliferation, Coulter counter, read-out: IC50 (L1210).
[7] abbreviates: CCRF-CEM, human T-lymphocyte CEM cells, 72 h proliferation, Coulter counter.
[8] abbreviates: Mus musculus, L1210, range over both L1210 and CEM cells and both 17k isomers, read-out: IC50 against proliferation of L1210 and CEM cell lines (range given).
Setting [9] is: range over both L1210 and CEM cells and both 17k isomers, read-out: IC50 against proliferation of L1210 and CEM cell lines (range given).

With `CCOP(=O)(Cn1cc(Cn2cnc3c(Cl)nc(N)nc32)nn1)OCC` [Compound 17a, Diethyl {4-[(2-amino-6-chloro-9H-purin-9-yl)methyl]-1H-1,2,3-triazol-1-yl}methylphosphonate], the IC50 in data set [1] (setting [4]) was 283 ± 17 µM; in data set [2] (Homo sapiens, HeLa, 72 h), no less than 250 µM; in data set [3] (Homo sapiens, CCRF-CEM, 72 h), no less than 250 µM.
On to `CCOP(=O)(COCCn1cc(Cn2cnc3c(Cl)nc(N)nc32)nn1)OCC` [Compound 17h, Diethyl 2-{4-[(2-amino-6-chloro-9H-purin-9-yl)methyl]-1H-1,2,3-triazol-1-yl}-ethoxymethylphosphonate], for which the IC50 in data set [1] (setting [4]) is greater than 250 µM; in data set [2] (Homo sapiens, HeLa, 72 h), greater than 250 µM; in data set [3] (Homo sapiens, CCRF-CEM, 72 h) it was no less than 250 µM.
Turning to `CCOP(=O)(CC(O)Cn1cc(Cn2cnc3c(=O)[nH]c(N)nc32)nn1)OCC` (centres unmarked) [Compound 16f, Diethyl 3-{4-[(2-amino-6-oxo-1,6-dihydro-9H-purin-9-yl)methyl]-1H-1,2,3-triazol-1-yl}-2-hydroxypropylphosphonate], the IC50 in data set [1] (setting [4]) was greater than 250 µM; in data set [2] (Homo sapiens, HeLa, 72 h), 195 ± 78 µM; in data set [3] (Homo sapiens, CCRF-CEM, 72 h), greater than 250 µM.
Turning to `CCOP(=O)(CCn1cc(Cn2cnc3c(=O)[nH]c(N)nc32)nn1)OCC` [Compound 16b, Diethyl 2-{4-[(2-amino-6-oxo-1,6-dihydro-9H-purin-9-yl)methyl]-1H-1,2,3-triazol-1-yl}ethylphosphonate], the IC50 was greater than 250 µM in data set [1] (setting [4]); greater than 250 µM in data set [2] (Homo sapiens, HeLa, 72 h); greater than 250 µM in data set [3] (Homo sapiens, CCRF-CEM, 72 h).
Take `CCOP(=O)(OCC)C(O)CCn1cc(Cn2cnc3c(=O)[nH]c(N)nc32)nn1` (centres unmarked) [Compound 16g, Diethyl 3-{4-[(2-amino-6-oxo-1,6-dihydro-9H-purin-9-yl)methyl]-1H-1,2,3-triazol-1-yl}-1-hydroxypropylphosphonate]: the IC50 in data set [1] (setting [4]) is greater than 250 µM; in data set [2] (Homo sapiens, HeLa, 72 h), 185 ± 35 µM; in data set [3] (Homo sapiens, CCRF-CEM, 72 h) it was greater than 250 µM.
For the molecule `CCOP(=O)(CCCn1cc(Cn2cnc3c(=O)[nH]c(N)nc32)nn1)OCC` [Compound 16c, Diethyl 3-{4-[(2-amino-6-oxo-1,6-dihydro-9H-purin-9-yl)methyl]-1H-1,2,3-triazol-1-yl}propylphosphonate], the IC50 in data set [1] (setting [4]) is greater than 250 µM; in data set [2] (Homo sapiens, HeLa, 72 h) it was 138 ± 52 µM; in data set [3] (Homo sapiens, CCRF-CEM, 72 h), greater than 250 µM.
Regarding `CCOP(=O)(OCC)C(O)CCn1cc(Cn2cnc3c(Cl)nc(N)nc32)nn1` (centres unmarked) [Compound 17g, Diethyl 3-{4-[(2-amino-6-chloro-9H-purin-9-yl)methyl]-1H-1,2,3-triazol-1-yl}-1-hydroxypropylphosphonate], the IC50 in data set [1] (setting [4]) was greater than 250 µM; in data set [2] (Homo sapiens, HeLa, 72 h), greater than 250 µM; in data set [3] (Homo sapiens, CCRF-CEM, 72 h), greater than 250 µM.
In the case of `CCOP(=O)(CCOCCn1cc(Cn2cnc3c(Cl)nc(N)nc32)nn1)OCC` [Compound 17i, Diethyl 2-{4-[(2-amino-6-chloro-9H-purin-9-yl)methyl]-1H-1,2,3-triazol-1-yl}-ethoxyethylphosphonate], the IC50 in data set [1] (setting [4]) was greater than 250 µM; in data set [2] (Homo sapiens, HeLa, 72 h) it was greater than 250 µM; in data set [3] (Homo sapiens, CCRF-CEM, 72 h) it was greater than 250 µM.
For `CCOP(=O)(Cn1cc(Cn2cnc3c(=O)[nH]c(N)nc32)nn1)OCC` [Compound 16a, Diethyl {4-[(2-amino-6-oxo-1,6-dihydro-9H-purin-9-yl)methyl]-1H-1,2,3-triazol-1-yl}methylphosphonate], the IC50 in data set [1] (setting [4]) was greater than 250 µM; in data set [2] (Homo sapiens, HeLa, 72 h), greater than 250 µM; in data set [3] (Homo sapiens, CCRF-CEM, 72 h) it was greater than 250 µM.
“Diethyl 2-{4-[(2-amino-6-chloro-9H-purin-9-yl)methyl]-1H-1,2,3-triazol-1-yl}-acetamidoethylphosphonate [Compound 17j]”: the IC50 in data set [1] (murine leukemia L1210 cells, 48 h proliferation, Coulter counter, read-out: IC50 (L1210)) is greater than 250 µM; in data set [2] (setting [5]) it was greater than 250 µM; in data set [3] (human T-lymphocyte CEM cells, 72 h proliferation, Coulter counter) it was greater than 250 µM.
`CCOP(=O)(CCOCCn1cc(Cn2cnc3c(=O)[nH]c(N)nc32)nn1)OCC` [Compound 16i, Diethyl 2-{4-[(2-amino-6-oxo-1,6-dihydro-9H-purin-9-yl)methyl]-1H-1,2,3-triazol-1-yl}ethoxyethyphosphonate]: the IC50 in data set [1] (setting [4]) is greater than 250 µM; in data set [2] (Homo sapiens, HeLa, 72 h), 210 ± 13 µM; in data set [3] (Homo sapiens, CCRF-CEM, 72 h) it was greater than 250 µM.
With `CCOP(=O)(CCn1cc(Cn2cnc3c(Cl)nc(N)nc32)nn1)OCC` [Compound 17b, Diethyl 2-{4-[(2-amino-6-chloro-9H-purin-9-yl)methyl]-1H-1,2,3-triazol-1-yl}ethylphosphonate], the IC50 is no less than 250 µM in data set [1] (setting [4]); 227 ± 32 µM in data set [2] (Homo sapiens, HeLa, 72 h); greater than 250 µM in data set [3] (Homo sapiens, CCRF-CEM, 72 h).
On to `CCOP(=O)(CCCCn1cc(Cn2cnc3c(Cl)nc(N)nc32)nn1)OCC` [Compound 17d, Diethyl 4-{4-[(2-amino-6-chloro-9H-purin-9-yl)methyl]-1H-1,2,3-triazol-1-yl}butylphosphonate], for which the IC50 in data set [1] (setting [4]) was greater than 250 µM; in data set [2] (Homo sapiens, HeLa, 72 h), no less than 250 µM; in data set [3] (Homo sapiens, CCRF-CEM, 72 h), greater than 250 µM.
As for `O=c1[nH]cc(F)c(=O)[nH]1` [5-fluorouracil, reference compound], the IC50 in data set [1] (setting [6]) was 0.33 ± 0.17 µM; in data set [2] (setting [5]) it was 0.54 ± 0.12 µM; in data set [3] (setting [7]), 18 ± 5 µM.
`CCOP(=O)(CC(O)Cn1cc(Cn2cnc3c(Cl)nc(N)nc32)nn1)OCC` (centres unmarked) [Compound 17f, Diethyl 3-{4-[(2-amino-6-chloro-9H-purin-9-yl)methyl]-1H-1,2,3-triazol-1-yl}-2-hydroxypropylphosphonate]: the IC50 in data set [1] (setting [4]) was greater than 250 µM; in data set [2] (Homo sapiens, HeLa, 72 h) it was greater than 250 µM; in data set [3] (Homo sapiens, CCRF-CEM, 72 h) it was greater than 250 µM.
What is called melting point is the temperature of the solid-liquid transition. With `CCOP(=O)(CNC(=O)Cn1cc(Cn2cnc3c(=O)[nH]c(N)nc32)nn1)OCC` [Compound 16j, Diethyl 2-{4-[(2-amino-6-oxo-1,6-dihydro-9H-purin-9-yl)methyl]-1H-1,2,3-triazol-1-yl}acetamidomethyphosphonate], the melting point was greater than 230 °C. In data set [1] (setting [4]), the IC50 was greater than 250 µM. Further, the IC50 in data set [2] (Homo sapiens, HeLa, 72 h) was 212 ± 54 µM. Moreover, the IC50 in data set [3] (Homo sapiens, CCRF-CEM, 72 h) was greater than 250 µM.
`Nc1nc(Cl)c2ncn(Cc3cn(C[C@H](OCc4ccccc4)[C@@H](O)P(=O)(OCc4ccccc4)OCc4ccccc4)nn3)c2n1` [(1S,2S)-17k, (1S,2S)-Dibenzyl 3-{4-[(2-amino-6-chloro-9H-purin-9-yl)methyl]-1H-1,2,3-triazol-1-yl}-2-benzyloxy-1-hydroxypropylphosphonate] registered a melting point of 76 to 78 °C. In addition, the IC50 in data set [1] (setting [6]) is 16 ± 6 µM. In addition, in data set [1] (setting [8]), the IC50 was 15 to 30 µM. Further, the IC50 in data set [1] (setting [9]) fell in the range of 16 to 30 µM. In addition, the IC50 in data set [2] (setting [5]) was determined as 84 ± 12 µM. The IC50 in data set [3] (setting [7]) is 30 ± 16 µM.
Regarding `Nc1nc(Cl)c2ncn(Cc3cn(C[C@H](OCc4ccccc4)[C@H](O)P(=O)(OCc4ccccc4)OCc4ccccc4)nn3)c2n1` [(1R,2S)-17k, (1R,2S)-Dibenzyl 3-{4-[(2-amino-6-chloro-9H-purin-9-yl)methyl]-1H-1,2,3-triazol-1-yl}-2-benzyloxy-1-hydroxypropylphosphonate], the IC50 was 21 ± 2 µM in data set [1] (setting [6]); 15 to 30 µM in data set [1] (setting [8]); 16 to 30 µM in data set [1] (setting [9]); 90 ± 33 µM in data set [2] (setting [5]); 26 ± 8 µM in data set [3] (setting [7]).
As to `CCOP(=O)(COCCn1cc(Cn2cnc3c(=O)[nH]c(N)nc32)nn1)OCC` [Compound 16h, Diethyl 2-{4-[(2-amino-6-oxo-1,6-dihydro-9H-purin-9-yl)methyl]-1H-1,2,3-triazol-1-yl}ethoxymethyphosphonate], the melting point lay within 89 to 92 °C. For the same molecule, in data set [1] (setting [4]), the IC50 is greater than 250 µM. The IC50 in data set [2] (Homo sapiens, HeLa, 72 h) is no less than 250 µM. In addition, the IC50 in data set [3] (Homo sapiens, CCRF-CEM, 72 h) is greater than 250 µM.
As to `CCOP(=O)(CCCCn1cc(Cn2cnc3c(=O)[nH]c(N)nc32)nn1)OCC` [Compound 16d, Diethyl 4-{4-[(2-amino-6-oxo-1,6-dihydro-9H-purin-9-yl)methyl]-1H-1,2,3-triazol-1-yl}butylphosphonate], the IC50 was greater than 250 µM in data set [1] (setting [4]); 148 ± 25 µM in data set [2] (Homo sapiens, HeLa, 72 h); greater than 250 µM in data set [3] (Homo sapiens, CCRF-CEM, 72 h).
With `CCOP(=O)(CCCn1cc(Cn2cnc3c(Cl)nc(N)nc32)nn1)OCC` [Compound 17c, Diethyl 3-{4-[(2-amino-6-chloro-9H-purin-9-yl)methyl]-1H-1,2,3-triazol-1-yl}propylphosphonate], the IC50 in data set [1] (setting [4]) was 227 ± 32 µM; in data set [2] (Homo sapiens, HeLa, 72 h) it was no less than 250 µM; in data set [3] (Homo sapiens, CCRF-CEM, 72 h), greater than 250 µM.
In turn, `CCOP(=O)(OCC)C(O)Cn1cc(Cn2cnc3c(=O)[nH]c(N)nc32)nn1` (centres unmarked) [Compound 16e, Diethyl 2-{4-[(2-amino-6-oxo-1,6-dihydro-9H-purin-9-yl)methyl]-1H-1,2,3-triazol-1-yl}-1-hydroxyethylphosphonate] had a melting point greater than 265 °C. The IC50 in data set [1] (setting [4]) was greater than 250 µM. For the same molecule, the IC50 in data set [2] (Homo sapiens, HeLa, 72 h) worked out at 206 ± 49 µM. For the same molecule, in data set [3] (Homo sapiens, CCRF-CEM, 72 h), the IC50 was greater than 250 µM.
